In patent US4379788A, “2-Phenyl-pyrimidones” (Dr. Karl Thomae Gesellschaft mit beschrankter Haftung, priority 1980, dated 1983):

What was measured:
Type in all cases: in vivo
[1] = Determination of acute toxicity in mice after intravenous administration; details: mouse, in vivo, iv, observation period 14 days
Protocol: (§1) The acute toxicity of the test compound was determined in mice (observationperiod: 14 days) after intravenous administration.

mice = test: as above; details: 35 mg/kg i.v., observation period 14 days
Protocol: as §1

blood circulation = test: Effect on blood circulation in anesthetized dogs (i.v.); design: Duration: unit not given here; details: for Effect on average arterial blood pressure (first figure of the pair): figure before the slash; for Decrease in contractility dp/dt max: left ventricle
Protocol: The blood circulation tests were carried out on dogs with a body weight of 18-29 kg under chloraloseurethane-nembutal anesthesia (54+270+10 mg/kg i.v.). After opening the thorax in the 4th left intercostal space the animals were ventilated with room air by means of a Harvard respirator. The arterial blood pressure was measured in the arteria carotis by a Statham pressure transducer; the heart rate was measured electronically from the sequence of the R-peaks of the electrocardiogram. The maximum rate of pressure increase ([…]) in the left ventricula was measured by means of a Konigsberg pressure received and a Grass differential amplifier. All parameters were recorded by means of a direct-writer. For anticoagulation the animals were injected i.v. with a solution of 10 mg/kg of sodium polyethylenesulfonate in 20% polydiol. The test compounds were administered intravenously to groups of 3 to 4 dogs.

Row | Compound | LD50 at 336 h [1] | Acute toxicity: animals died (mice) | Decrease in heart rate (blood circulation; 1.0 mg/kg i.v.) | Duration (blood circulation; 1.0 mg/kg i.v.) | Effect on average arterial blood pressure (first figure of the pair) (blood circulation; 1.0 mg/kg i.v.) | Decrease in contractility dp/dt max (blood circulation; 1.0 mg/kg i.v.) | Decrease in heart rate (blood circulation; 0.5 mg/kg i.v.) | Duration (blood circulation; 0.5 mg/kg i.v.) | Effect on average arterial blood pressure (second figure of the pair) (blood circulation; 0.5 mg/kg i.v., figure after the slash) | Effect on average arterial blood pressure (first figure of the pair) (blood circulation; 0.5 mg/kg i.v.) | Decrease in contractility dp/dt max (blood circulation; 0.5 mg/kg i.v.)
1 | COc1ccc2nc(-c3ccc(OCC(O)CN(C)CCc4ccc(OC)c(OC)c4)cc3)n(C)c(=O)c2c1.Cl.Cl (centres unmarked) [B, 2-{4-[2-Hydroxy-3-(2-(3,4-dimethoxy-phenyl)-N-methylethylamino)-propoxy]-phenyl}-3-methyl-6-methoxy-3,4-dihydro-quinazolin-4-one dihydrochloride] | > 35 mg/kg | 0 out of 5 | -28 min⁻¹ | 45 | -16 mm Hg | -17 | – | – | – | – | –
2 | COc1ccc2nc(-c3ccc(OCC(O)CNCCc4ccccc4OC)cc3)n(C)c(=O)c2c1.Cl.Cl (centres unmarked) [C, 2-{4-[2-Hydroxy-3-(2-(2-methoxy-phenyl)-ethylamino)-propoxy]-phenyl}-3-methyl-6-methoxy-3,4-dihydroquinazolin-4-one dihydrochloride] | > 35 mg/kg | 0 out of 5 | -22 min⁻¹ | > 36 | +1 mm Hg | -14 | – | – | – | – | –
3 | COc1ccc2nc(-c3ccc(OCC(O)CNC(C)(C)C)cc3)n(C)c(=O)c2c1 (centres unmarked) [Compound A, 2-[4-(2-Hydroxy-3-tert.butylamino-propoxy)-phenyl]-3-methyl-6-methoxy-3,4-dihydro-quinazolin-4-one] | > 35 mg/kg | 0 out of 5 | – | – | – | – | -21 min⁻¹ | > 55 | -8 mm Hg | -20 mm Hg | -33
4 | COc1ccc2nc(-c3ccc(OCC(O)CNC(C)C)cc3)n(C)c(=O)c2c1 (centres unmarked) [D, 2-[4-(2-Hydroxy-3-isopropylamino-propoxy)-phenyl]-3-methyl-6-methoxy-3,4-dihydro-quinazolin-4-one] | – | – | -30 min⁻¹ | > 40 | -5 mm Hg | -27 | – | – | – | – | –
5 | COc1cc2nc(-c3ccc(OCC(O)CNCCOc4ccccc4C)cc3)n(C)c(=O)c2cc1OC (centres unmarked) [E, 2-{4-[2-Hydroxy-3-(2-(2-methyl-phenoxy)-ethylamino)-propoxy]-phenyl}-3-methyl-6,7-dimethoxy-3,4-dihydroquinazolin-4-one] | > 35 mg/kg | 0 out of 5 | -11 min⁻¹ | > 36 | -13 mm Hg | -14 | – | – | – | – | –
6 | COc1cccc2c(=O)n(C)c(-c3ccc(OCCCNCC(O)COc4cccc(C)c4)cc3)nc12 (centres unmarked) [F, 2-{4-[3-(2-Hydroxy-3-(3-methyl-phenoxy)-propylamino)-propoxy]-phenyl}-3-methyl-8-methoxy-3,4-dihydroquinazolin-4-one] | > 35 mg/kg | 0 out of 5 | -23 min⁻¹ | > 63 | -11 mm Hg | -23 | – | – | – | – | –
